Like-named read-outs stand apart in the source and are kept apart here.
Columns and labels:
Type in all cases: biochemical, male Wistar rats
[1] = target: noradrenaline transporter/uptake site (3H-NA uptake, hippocampal synaptosomes) (Rattus norvegicus, UniProt Q9WTR4); test: In vitro inhibition of 3H-noradrenaline (3H-NA) uptake in hippocampal synaptosomes
Source text: (§1) The compounds of the invention have been tested for their ability to inhibit reuptake of dopamine(DA) noradrenaline(NA) and serotonine(5-HT) in synaptosomes.
(§2) Specific neurotransmitter transporters/uptake sites on nerve terminals presumably function to terminate neuronal signalling by removing the neurotransmitters dopamine, noradrenaline and serotonine, respectively, from the synaptic cleft. The activity of the transporter integral proteins can be measured in vitro by synaptosomal uptake of ^3H-dopamine, ^3H-noradrenaline and ^3H-serotonine, respectively.
In vitro Inhibition of ^3H-noradrenaline (^3H-NA) Uptake in Hippocampal Synaptosomes
(§3) Tissue preparation: Preparations are performed at 0-4° C. unless otherwise indicated. Hippocampi from male Wistar rats (150-200 g) are homogenised for 5-10 sec in 100 volumes of ice-cold 0.32M sucrose containing 1 mM pargyline using an Ultra-Turrax homogenizer. Monoamine oxidase activity will be inhibited in the presence of pargyline. The homogenate is centrifuged at 1000×g for 10 min. The resulting supernatant is then centrifuged at 27,000×g for 50 min and the supernatant is discarded. The pellet (P2) is resuspended in oxygenated (equilibrated with an atmosphere of 96% O2: 4% CO2 for at least 30 min) Krebs-Ringer incubation buffer (2000 ml per 9 of original tissue) at pH 7.2 containing 122 mM NaCl, 0.16 mM EDTA, 4.8 mM KCl, 12.7 mM Na2HPO4, 3.0 mM NaH2PO4, 1.2 mM MgSO4, 0.97 mM CaCl2, 10 mM glucose and 1 mM ascorbic acid.
(§4) Assay: Aliquots of 4.0 ml tissue suspension are added to 100 μl of test solution and 100 μl of ^3H-NA (1 nM, final concentration), mixed and incubated for 90 min at 37° C. Non-specific uptake is determined using desipramine (1 μM, final concentration). After incubation the samples are poured directly onto Whatman GF/C glass fibre filters under suction. The filters are then washed three times with 5 ml of ice-cold 0.9% (w/v) NaCl solution. The amount of radioactivity on the filters is determined by conventional liquid scintillation counting. Specific uptake is calculated as the difference between total uptake and non-specific uptake.
(§5) 25-75% inhibition of specific binding must be obtained, before calculation of an IC50.
The test value is given as IC50 (the concentration (μM) of the test substance which inhibits the specific binding of ^3H-NA by 50%).

[2] = target: T1, dopamine transporter/uptake site (3H-DA uptake, striatal synaptosomes) (Rattus norvegicus, UniProt P23977); test: In vitro inhibition of 3H-dopamine (3H-DA) uptake in striatal synaptosomes
T1 construct: Corpi striati from male Wistar rats (150-200 g) are homogenised; from tissue; host or cells: rat corpus striatum, P2 synaptosomal pellet
Source text: as §1, §2
In vitro Inhibition of ^3H-dopamine (^3H-DA) Uptake in Striatal Synaptosomes
as §3, with “Tissue preparations:” for “Tissue preparation:”, “indicated. Corpi striati” for “indicated. Hippocampi”, “buffer (8000” for “buffer (2000”, “per g” for “per 9”, “MgSO4, 1” for “MgSO4, 0.97”
as §4, with “^3H-DA” for “^3H-NA”, “25” for “90”, “benztropine (10” for “desipramine (1”
as §5
The test value is given as IC50 (the concentration (μM) of the test substance which inhibits the specific binding of ^3H-DA by 50%).

[3] = target: T2, serotonine transporter/uptake site (3H-5-HT uptake, cortical synaptosomes) (Rattus norvegicus, UniProt P31652); test: In vitro inhibition of 3H-5-hydroxytryptamine (3H-5-HT, serotonine) uptake in cortical synaptosomes; conditions: for IC50: cortical synaptosomes; for greater potency as inhibitors of serotonine uptake than of either noradrenaline or dopamine uptake: selectivity, 5-HT uptake vs NA or DA uptake, in vitro
T2 construct: Cerebral cortices from male Wistar rats (150-200 g) are homogenised; from tissue; host or cells: rat cerebral cortex, P2 synaptosomal pellet
Source text: as §1, §2
In vitro Inhibition of ^3H-5-hydroxytryptamine (^3H-5-HT, Serotonine) Uptake in Cortical Synaptosomes
as §3, with “Tissue Preparation:” for “Tissue preparation:”, “indicated. Cerebral cortices” for “indicated. Hippocampi”, “buffer (1000” for “buffer (2000”, “per g” for “per 9”, “MgSO4, 1” for “MgSO4, 0.97”
as §4, with “^3H-5-HT” for “^3H-NA”, “30” for “90”, “citalopram” for “desipramine”
as §5
The test value is given as IC50 (the concentration (μM) of the test substance which inhibits the specific binding of ^3H-5-HT by 50%).

[4] = read-out: NA-uptake IC50, Table 1, 3H-NA 1 nM, 90 min at 37° C.
[5] = read-out: NA-uptake IC50, Table 2, value ± spread
[6] = DA-uptake IC50, Table 1, 3H-DA 1 nM, 25 min at 37° C.
[7] = DA-uptake IC50, Table 2, value ± spread
[8] = 5-HT-uptake IC50, Table 1, 3H-5-HT 1 nM, 30 min at 37° C.
[9] = 5-HT-uptake IC50, Table 2, value ± spread

T2 sequence (P31652 whole entry): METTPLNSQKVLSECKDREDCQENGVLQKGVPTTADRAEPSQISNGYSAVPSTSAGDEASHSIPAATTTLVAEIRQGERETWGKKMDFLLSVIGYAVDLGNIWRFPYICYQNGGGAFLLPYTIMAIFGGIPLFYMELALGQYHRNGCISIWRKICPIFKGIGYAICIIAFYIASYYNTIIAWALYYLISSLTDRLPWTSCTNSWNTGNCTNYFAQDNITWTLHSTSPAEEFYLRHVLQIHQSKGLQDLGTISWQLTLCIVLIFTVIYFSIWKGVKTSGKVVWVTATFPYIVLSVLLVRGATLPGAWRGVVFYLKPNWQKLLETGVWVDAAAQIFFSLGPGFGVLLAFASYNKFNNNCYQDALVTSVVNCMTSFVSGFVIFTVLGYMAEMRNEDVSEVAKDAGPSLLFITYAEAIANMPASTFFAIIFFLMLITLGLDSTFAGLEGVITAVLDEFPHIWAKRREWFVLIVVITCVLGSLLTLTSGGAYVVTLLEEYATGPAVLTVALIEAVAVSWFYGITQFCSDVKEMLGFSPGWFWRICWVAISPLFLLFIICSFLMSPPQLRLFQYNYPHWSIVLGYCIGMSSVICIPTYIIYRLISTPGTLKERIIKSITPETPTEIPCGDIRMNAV
T1 sequence (P23977 whole entry): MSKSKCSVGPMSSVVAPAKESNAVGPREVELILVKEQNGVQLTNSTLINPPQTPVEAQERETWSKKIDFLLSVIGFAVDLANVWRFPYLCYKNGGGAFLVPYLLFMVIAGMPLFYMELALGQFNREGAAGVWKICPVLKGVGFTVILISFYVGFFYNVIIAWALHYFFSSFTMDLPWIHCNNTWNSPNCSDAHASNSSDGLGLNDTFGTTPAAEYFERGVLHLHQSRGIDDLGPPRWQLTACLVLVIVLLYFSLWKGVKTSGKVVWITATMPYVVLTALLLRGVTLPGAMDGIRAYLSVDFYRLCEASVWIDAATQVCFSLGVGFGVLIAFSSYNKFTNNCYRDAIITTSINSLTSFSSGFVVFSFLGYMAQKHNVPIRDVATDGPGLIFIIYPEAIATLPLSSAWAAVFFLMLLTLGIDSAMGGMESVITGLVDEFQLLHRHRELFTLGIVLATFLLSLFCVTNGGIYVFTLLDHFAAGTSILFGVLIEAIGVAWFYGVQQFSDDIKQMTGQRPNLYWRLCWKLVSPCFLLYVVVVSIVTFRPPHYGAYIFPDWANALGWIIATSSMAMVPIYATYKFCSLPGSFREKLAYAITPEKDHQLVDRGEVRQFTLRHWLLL

Row | SMILES | IC50 [1, 4] [nM] | IC50 [1, 5] [nM] | IC50 [2, 6] [nM] | IC50 [2, 7] [nM] | IC50 [3, 8] [nM] | IC50 [3, 9] [nM] | greater potency as inhibitors of serotonine uptake than of either noradrenaline or dopamine uptake [3] [fold]
1 | CN1C2C=C(c3ccc(OC(F)(F)F)cc3)CC1CC2 (racemic) [(±)-3-(4-trifluoromethoxyphenyl)-8-methyl-8-azabicyclo[3.2.1]oct-2-ene] | 8000 | 12000 ± 2300 | 22000 | 21300 ± 1200 | 3.6 | 3.5 ± 0.3 | 3000
2 | CN1C2C=C(c3ccc(C#N)cc3)CC1CC2 (racemic) [(±)-3-(4-cyanophenyl)-8-methyl-8-azabicyclo(3.2.1]oct-2-ene] | 4900 | – | 18000 | – | 47 | – | –
3 | FC(F)(F)Oc1ccc(C2=CC3CCC(C2)N3)cc1 (single isomer, unassigned) [3-(4-trifluoromethoxyphenyl)-8-azabicyclo[3.2.1]oct-2-ene (enantiomer A*), 3-(4-trifluoromethoxyphenyl)-8-azabicyclo[3.2.1]oct-2-ene] | – | – | – | – | – | 22 ± 12 | –
4 | FC(F)(F)Oc1ccc(C2=CC3CCC(C2)N3)cc1 (single isomer, unassigned) [3-(4-trifluoromethoxyphenyl)-8-azabicyclo[3.2.1]oct-2-ene (enantiomer B*), 3-(4-trifluoromethoxyphenyl)-8-azabicyclo[3.2.1]oct-2-ene] | – | – | – | – | – | 12 ± 6 | –
5 | CN1C2C=C(c3ccc([N+](=O)[O-])cc3)CC1CC2 (racemic) [(±)-3-(4-nitrophenyl)-8-methyl-8-azabicyclo[3.2.1]oct-2-ene] | 500 | – | 1500 | – | 16 | – | –
6 | FC(F)(F)Oc1ccc(C2=CC3CCC(C2)N3)cc1 (racemic) [(±)-3-(4-trifluoromethoxyphenyl)-8-azabicyclo[3.2.1]oct-2-ene (racemate), (±)-3-(4-trifluoromethoxyphenyl)-8-azabicyclo[3.2.1]oct-2-ene] | – | 15600 ± 3500 | – | 18700 ± 3500 | – | 4.8 ± 0.6 | 3000

From patent publication US6617459B2, “Azabicyclo derivatives and their use” (NeuroSearch A/S, priority 1999, dated 2003)
